Consider 40 molecules from ChEMBL document CHEMBL4834466 (J Med Chem, 2021).

The nature of series [1]: Lipophilicity, logD of compound at pH 7.4. It counts as physicochemical. As to conditions: buffer.
A short description of series [2]: Metabolic stability in rat Hepatocyte assessed as intrinsic clearance at 0.5 uM incubated for 60 mins by LC-MS/MS analysis. It counts as ADME, tissue-based. The settings on record: hepatocytes, 1 h.
Series [3] is described as follows: Volume of distribution at steady state in Wistar Han rat at 1 mg/kg, iv measured upto 7 hrs by LC-MS/MS analysis. It is filed as ADME, organism-based. The settings on record: in vivo, read-out: Vdss.
Series [4] can be described thus: Clearance in Wistar Han rat at 1 mg/kg, iv measured upto 7 hrs by LC-MS/MS analysis. It counts as ADME, organism-based. As to conditions: in vivo.
The nature of series [5]: Unbound clearance in Wistar Han rat at 1 mg/kg, iv measured upto 7 hrs by LC-MS/MS analysis. The settings on record: in vivo. It counts as ADME, organism-based.
Series [6] in a line: Metabolic stability in human Hepatocyte assessed as intrinsic clearance at 0.5 uM incubated for 120 mins by LC-MS/MS analysis. It is filed as ADME, tissue-based. As to conditions: hepatocytes, 2 h.
Series [7] is described as follows: Oral bioavailability in Wistar Han rat at 3 mg/kg measured upto 24 hrs by LC-MS/MS analysis. It counts as ADME, organism-based. The settings on record: in vivo.
A short description of series [8]: Metabolic stability in dog Hepatocyte assessed as intrinsic clearance at 0.5 uM incubated for 60 mins by LC-MS/MS analysis. It is filed as ADME, tissue-based, Canis lupus familiaris. As to conditions: hepatocytes, 1 h.
A short description of series [9]: LBF in Wistar Han rat at 1 mg/kg, iv measured upto 7 hrs by LC-MS/MS analysis. It counts as ADME, organism-based. The settings on record: in vivo.
Series [10] in a line: Half life in Wistar Han rat at 1 mg/kg, iv measured upto 7 hrs by LC-MS/MS analysis. It is filed as ADME, organism-based. As to conditions: in vivo.
A short description of series [11]: Clearance in Beagle dog at 0.5 mg/kg, iv measured upto 24 hrs by LC-MS/MS analysis. The settings on record: in vivo. It counts as ADME, organism-based, Canis lupus familiaris.
Series [12] in a line: Unbound clearance in Beagle dog at 0.5 mg/kg, iv measured upto 24 hrs by LC-MS/MS analysis. It is filed as ADME, organism-based, Canis lupus familiaris. The settings on record: in vivo.
Series [13] in a line: Oral bioavailability in Beagle dog at 0.5 mg/kg measured upto 24 hrs by LC-MS/MS analysis. The settings on record: in vivo. It counts as ADME, organism-based, Canis lupus familiaris.
A short description of series [14]: Volume of distribution at steady state in Beagle dog at 0.5 mg/kg, iv measured upto 24 hrs by LC-MS/MS analysis. It is filed as ADME, organism-based, Canis lupus familiaris. As to conditions: in vivo, read-out: Vdss.
Series [15] is described as follows: LBF in Beagle dog at 0.5 mg/kg, iv measured upto 24 hrs by LC-MS/MS analysis. It counts as ADME, organism-based, Canis lupus familiaris. The settings on record: in vivo.
A short description of series [16]: Half life in Beagle dog at 0.5 mg/kg, iv measured upto 24 hrs by LC-MS/MS analysis. It is filed as ADME, organism-based, Canis lupus familiaris. As to conditions: in vivo.

For `CNC(=O)c1cc(C(=O)NC)c2c(c1)[C@H](c1ccccc1)[C@@H](CF)O2`, the logD in [1] worked out at 3.3. Moreover, the CLH in [2] amounted to 3 mL/min/g.
For the molecule `CNC(=O)c1cc(C(=O)NCCC[C@H]2OC[C@H](N)CO2)cc2c1O[C@H](CF)[C@H]2c1ccccc1`, the logD in series [1] worked out at 2.9. Further, the CLH in series [2] was 1.1 mL/min/g.
The molecule `CNC(=O)c1cc(C(=O)NC2CC2)cc2c1O[C@H](CF)[C@H]2c1ccccc1` displayed a logD in [1] of 3.9. Besides, the CLH in series [2] amounted to 3.2 mL/min/g.
In the case of `CNC(=O)c1cc(C(N)=O)cc2c1O[C@H](CF)[C@H]2c1ccccc1`, the logD in series [1] amounted to 2.9.
On to `CNC(=O)c1cc(C(=O)N[C@H]2C[C@@H]2C)cc2c1OC[C@@]2(C)c1ccccc1`, for which, in series [1], the logD turned out to be 4.7.
`CNC(=O)c1cc(C(=O)N[C@H]2[C@@H]3COC[C@@H]32)cc2c1OC[C@H]2c1ccc(F)cc1` came in with a logD in series [1] of 3.6. Further, the CLH in series [2] worked out at 14.8 mL/min/g.
In the case of `CNC(=O)c1cc(C(=O)NC)c2c(c1)[C@](C)(c1ccccc1)CO2`, the logD in series [1] stood at 3.4.
Regarding `CNC(=O)c1cc(C(=O)N[C@H]2[C@@H]3COC[C@@H]32)cc2c1OC[C@@]2(C)c1ccccc1`, the Vd in series [3] worked out at 1.6 L/kg. The logD in series [1] came to 3.7. Besides, the clearance in series [4] was found to be 61 mL/min/kg. The CLH in series [2] was 1.2 mL/min/g; in [6] it was less than 0.5 mL/min/g; in series [8], less than 0.7 mL/min/g. The CL free in series [5] turned out to be 274 mL/min/kg. The molecule further gave a bioavailability in series [7] of 54%. In series [9], this molecule returned an LBF of 77%. Further, the half-life in [10] was 18 min.
In the case of `CNC(=O)c1cc(C(=O)N[C@H]2C[C@@H]2C)cc2c1OC[C@@]2(CO)c1ccccc1`, in series [3], the Vd is 1.2 L/kg. Besides, in series [1], the pH-dependent lipophilicity (logD) came out at 3.3. The clearance in [4] is 60 mL/min/kg. Also, the CLH in series [2] was 2.7 mL/min/g; in series [6] it was less than 0.5 mL/min/g; in series [8], 1 mL/min/g. For the same molecule, the CL free in series [5] is 340 mL/min/kg. In [7], the bioavailability is 38%. The LBF in [9] is listed as 60%. In series [10], this molecule had a half-life of 18 min.
Regarding `CNC(=O)c1cc(C(=O)NC2CC2)cc2c1OC[C@H]2c1ccccc1`, the Vd in series [3] came out at 0.6 L/kg. This molecule came in with a logD in series [1] of 3.6. Also, in series [4], the clearance amounted to 34 mL/min/kg. Also, the CLH in series [2] was 2 mL/min/g; in [6] it was less than 0.5 mL/min/g; in [8] it was less than 0.7 mL/min/g. The molecule further came in with a CL free in series [5] of 723 mL/min/kg. In series [7], this molecule had a bioavailability of 47%. In addition, in series [9], the LBF was 43%. Moreover, the half-life in series [10] was 18 min.
Turning to `CNC(=O)c1cc(C(=O)N[C@H]2[C@@H]3C[C@H](O)C[C@@H]32)cc2c1OC[C@@]2(C)c1ccccc1`, the logD in [1] came out at 3.7. Besides, the CLH in series [2] was found to be 6.4 mL/min/g.
For `CNC(=O)c1cc(C(=O)N[C@H]2CC[C@H](O)CC2)cc2c1OC[C@@]2(C)c1ccccc1`, the logD in series [1] is 3.3.
Molecule `CNC(=O)c1cc(C(=O)N[C@H]2[C@@H]3COC[C@@H]32)cc2c1OC[C@H]2C1CCOCC1` showed a logD in series [1] of 2.1.
`CNC(=O)c1cc(C(=O)N[C@H]2[C@@H]3C[C@@H](O)C[C@@H]32)cc2c1OC[C@H]2c1ccccc1` registered a logD in series [1] of 2.9. Besides, the CLH in series [2] came to 3.3 mL/min/g.
For `CNC(=O)c1cc(C(=O)Nc2cnn(C)c2)cc2c1OC[C@H]2c1ccccc1`, in that order: 3.5 and 20.1 mL/min/g.
Take `CNC(=O)c1cc(C(=O)NC)c2c(c1)[C@H](c1ccccc1)CO2`: in series [1], the logD worked out at 3.2.
Still for that read-out and setting: then `CNC(=O)c1cc(C(=O)NCCC[C@H]2OC[C@H](N)CO2)cc2c1OC[C@H]2c1ccccc1`, with 2.6.
In [1], `CNC(=O)c1cc(C(=O)NCCc2cnn(C)c2)cc2c1OC[C@H]2c1ccccc1` gave a logD of 3.2.
In [1], `CNC(=O)c1cc(C(=O)N[C@H]2[C@@H]3COC[C@@H]32)cc2c1OC[C@H]2c1ccccc1C` had a logD of 4. The CLH in series [2] was determined as 30.9 mL/min/g.
`CNC(=O)c1cc(C(=O)NC2CC2)cc2c1OC[C@H]2c1ccc(F)cc1` displayed a log distribution coefficient (logD) in series [1] of 3.8. In series [2], the CLH was found to be 6.1 mL/min/g.
Turning to `CNC(=O)c1cc(C(N)=O)cc2c1OC[C@H]2c1ccccc1`, in series [1], the logD is 2.7.
The molecule `CNC(=O)c1cc(C(=O)NCCc2cnn(C)c2)cc2c1OC[C@H]2c1cccc2[nH]ccc12` showed a logD in series [1] of 3.2. The CLH in series [2] was 16.3 mL/min/g.
Consider `CNC(=O)c1cc(C(=O)N[C@@H]2C[C@H]2C)cc2c1O[C@H](CF)[C@H]2c1ccccc1`, for which the logD in series [1] is 4.5.
As to `CNC(=O)c1cc(C(=O)N[C@H]2[C@@H]3COC[C@@H]32)cc2c1OC[C@H]2c1ccccc1`, in [1], the logD amounted to 3.3. Besides, the CLH in series [2] is 8.6 mL/min/g.
`CCC(=O)N1C[C@@H]2[C@H](C1)[C@H]2NC(=O)c1cc(C(=O)NC)c2c(c1)[C@H](c1ccccc1)CO2`: in series [1], the logD turned out to be 3.4. Moreover, in series [2], the CLH amounted to 6.8 mL/min/g.
Take `CNC(=O)c1cc(C(=O)N[C@H]2[C@@H]3C[C@@H](O)C[C@@H]32)cc2c1OC[C@@]2(C)c1ccccc1`: the Vd in series [3] came out at 2.3 L/kg; in series [14], 0.9 L/kg. Moreover, the logD in series [1] stood at 3.3. The clearance in series [4] is 55 mL/min/kg; in series [11], 5 mL/min/kg. For the same molecule, the figures for the CLH in [2], in series [6] and in series [8] were 1 mL/min/g, less than 0.5 mL/min/g and less than 0.7 mL/min/g, respectively. Besides, the CL free in series [5] was 260 mL/min/kg; in series [12] it was 24 mL/min/kg. The bioavailability came to 64% in [13] and 32% in series [7]. Besides, the values for the LBF in [15] and in [9] were 8% and 69%, respectively. Further, the half-life in series [16] was 174 min; in [10] it was 42 min.
`CNC(=O)c1cc(C(=O)NC2CC2)cc2c1OC[C@H]2c1cccc2[nH]ccc12` yielded a logD in series [1] of 3.5. For the same molecule, the CLH in [2] stood at 4.6 mL/min/g.
For `CNC(=O)c1cc(C(=O)NC2CC2)cc2c1OC[C@H]2c1cccc(F)c1`, in that order: 3.7 and 10 mL/min/g.
In the same order, the values of `CNC(=O)c1cc(C(=O)NC2CC2)cc2c1OC[C@@]2(C)c1ccccc1` are 4 and 6.7 mL/min/g.
Regarding `CNC(=O)c1cc(C(=O)N[C@H]2[C@@H]3COC[C@@H]32)cc2c1OC[C@H]2c1cccc2[nH]ccc12`, the log distribution coefficient (logD) in series [1] was 3.1. Moreover, the CLH in series [2] is 3.6 mL/min/g.
With `CNC(=O)c1cc(C(=O)N[C@H]2[C@@H]3COC[C@@H]32)cc2c1OC[C@@]2(CO)c1ccccc1`, in series [1], the logD is 2.4. In addition, the CLH in series [2] was found to be 1.4 mL/min/g.
`CNC(=O)c1cc(C(=O)N[C@H]2C[C@@H]2C)cc2c1OC[C@H]2c1ccccc1` showed a log distribution coefficient (logD) in [1] of 4.5.
`CC[C@@]1(c2ccccc2)COc2c(C(=O)NC)cc(C(=O)N[C@H]3[C@@H]4COC[C@@H]43)cc21` returned a logD in series [1] of 4.2.
With `CNC(=O)c1cc(C(=O)NC2CC2)cc2c1OC[C@H]2c1cccc(OC)c1` (racemic), the logD in [1] amounted to 3.8.
For `CNC(=O)c1cc(C(=O)N[C@H]2[C@@H]3COC[C@@H]32)cc2c1OC[C@H]2c1ccccn1` (racemic), the logD in [1] worked out at 1.6.
For `CNC(=O)c1cc(C(=O)N[C@H]2[C@@H]3COC[C@@H]32)cc2c1OC[C@H]2c1cccnc1` (racemic), in series [1], the pH-dependent lipophilicity (logD) stood at 1.4.
Still for that read-out and setting: with `CNC(=O)c1cc(C(=O)N[C@H]2[C@@H]3COC[C@@H]32)cc2c1OC[C@H]2c1ccncc1` (racemic) the figure was 1.3; with `CNC(=O)c1cc(C(=O)N[C@H]2[C@@H]3COC[C@@H]32)cc2c1OC[C@H]2c1cccc(OC)c1` (racemic), 3.2.
`CNC(=O)c1cc(C(=O)NC2CC2)cn(Cc2ccccc2)c1=O` [GSK620] yielded a logD in series [1] of 3.1. Moreover, the CLH in series [2] came out at 1 mL/min/g.
For `CNC(=O)c1cc(C(=O)N[C@H]2[C@@H]3COC[C@@H]32)cc2c1O[C@H](CF)[C@H]2c1ccccc1` [GSK973], the logD in [1] was 3.6. Further, the CLH in series [2] is 1.8 mL/min/g.

The logD is the decadic logarithm of the distribution of all forms, ionised or not, between an organic phase and buffer at a given pH. Broadly, the clearance is the rate of elimination divided by the concentration. Lower therefore signals a low capacity for elimination. As a reminder, the bioavailability is dose-corrected exposure relative to a reference, in per cent. A low value points to little systemic uptake. One may read the half-life as how long it takes for the measured level to halve. A high value points to slow decline.
